In patent publication US12583851B2, “Heteroaryl-substituted pyrazine derivatives as pesticides” (Elanco Animal Health GmbH, priority 2019, dated 2026):

Experiments:
Type in all cases: in vivo
[1] = system: Rhipicephalus (Boophilus) microplus larvae (strain Parkhurst, resistant against synthetic pyrethroids); experiment: Rhipicephalus (Boophilus) microplus in-vitro contact test, larval cattle tick; details: after 48 hours, read-out: efficacy (larvae dead or moribund); for pest or weed control at 1 µg/cm2, 100 g/ha: 1 μg/cm^2 (=100 g/ha); for pest or weed control at 5 µg/cm2, 500 g/ha: 5 μg/cm^2 (=500 g/ha)
Procedure: Rhipicephalus (Boophilus) microplus—In-Vitro Contact Tests Larval Cattle Tick (Strain Parkhurst, Resistant Against Synthetic Pyrethroids)
9 mg compound is solved in 1 mL acetone and diluted with acetone to the desired concentration. […] the test solution is filled in 25 mL glass test tubes and homogeneously distributed on the inner walls by rotation and tilting on a shaking device (2 h at 30 rpm). With a compound concentration of 900 ppm, an inner surface of 44.7 cm^2 and a homogeneous distribution, a dose of 5 μg/cm^2 is achieved.
After the solvent has evaporated, each test tube is filled with 20-50 cattle tick larvae (Rhipicephalus microplus), closed with a perforated lid and incubated in a horizontal position at 85% relative humidity and 27° C. in an incubator. After 48 hours efficacy is determined. The larvae are patted on the ground of the tubes and negative geotactic behaviour is recorded.
An efficacy of 100% means all larvae are dead or moribund; 0% means no larvae are dead or moribund.

[2] = system: fall armyworm larvae (Spodoptera frugiperda); experiment: Spodoptera frugiperda spray test; details: 168 h, maize leaf sections, after 7 days
Procedure: Spodoptera fruaiperda—Spray Test
Solvent: 78.0 parts by weight acetone • 1.5 parts by weight dimethylformamide
(§1) Emulsifier: alkylarylpolyglycol ether
(§2) To produce a suitable preparation of active compound, 1 part by weight of active compound is mixed with the stated amount of solvents and is diluted with water, containing an emulsifier concentration of 1000 ppm, to the desired concentration. Further test concentrations are prepared by dilution with emulsifier containing water.
Maize (Zea mays) leaf sections are sprayed with a preparation of the active ingredient of the desired concentration. Once dry, the leaf sections are infested with fall armyworm larvae (Spodoptera frugiperda).
After 7 days mortality in % is determined. 100% means all caterpillars have been killed and 0% means none of the caterpillars have been killed.

[3] = system: larvae of the banded cucumber beetle (Diabrotica balteata); experiment: Diabrotica balteata spray test; details: 168 h, after 7 days, read-out: efficacy (seedling growth); for pest or weed control at 32 µg/disc, 100 g/ha: 100 g/ha (=32 μg/well); for pest or weed control at 6.4 µg/disc, 20 g/ha: 20 g/ha (=6.4 μg/well)
Procedure: Diabrotica balteata—Spray Test
Solvent: 78.0 parts by weight of acetone • • 1.5 parts by weight of dimethylformamide
as §1
as §2, with “solvent,” for “solvents”, “and the concentrate” for “and”
Soaked wheat seeds (Triticum aestivum) are placed in a multiple well plate filled with agar and some water and are incubated for 1 day to germinate (5 seeds per well). The germinated wheat seeds are sprayed with a test solution containing the desired concentration of the active ingredient. Afterwards each unit is infected with 10-20 larvae of the banded cucumber beetle (Diabrotica balteata).
After 7 days efficacy in % is determined. 100% means all the seedlings have grown up like in the untreated, uninfected control; 0% means none of the seedlings have grown.

Structure (SMILES) | pest or weed control at 1 µg/cm2, 100 g/ha [1] [%] | pest or weed control at 5 µg/cm2, 500 g/ha [1] [%] | mortality at 100 g/ha [2] [%] | pest or weed control at 32 µg/disc, 100 g/ha [3] [%] | pest or weed control at 6.4 µg/disc, 20 g/ha [3] [%]
CC(NC(=O)c1cc(C(F)(F)F)cc(C(F)(F)F)c1)c1nccnc1-n1cc(C(=O)N(C)C(C)C)cn1 (racemic) [Example I-136, (rac)-1-(3-{1-[3,5-Bis(trifluoromethyl)benzamido]ethyl}pyrazin-2-yl)-N-methyl-N-(propan-2-yl)-1H-pyrazole-4-carboxamide] | 100 | 100 | 100 | – | –
CC(NC(=O)c1cc(C(F)(F)F)cc(C(F)(F)F)c1)c1nccnc1-c1ccc(C(=O)N(C)CC#N)cn1 (racemic) [Example I-39, (rac)-6-(3-{1-[3,5-Bis(trifluoromethyl)benzamido]ethyl}pyrazin-2-yl)-N-(cyanomethyl)-N-methylpyridine-3-carboxamide] | – | – | 100 | 100 | –
Cc1cnc(C(C)NC(=O)c2cc(C(F)(F)F)cc(C(F)(F)F)c2)c(-c2ncc(C(=O)N(C)CC3CC3)s2)n1 (racemic) [Example I-125, (rac)-2-(3-{1-[3,5-Bis(trifluoromethyl)benzamido]ethyl}-6-methylpyrazin-2-yl)-N-(cyclopropylmethyl)-N-methyl-1,3-thiazole-5-carboxamide] | 100 | 100 | 100 | – | –
CCN(C)C(=O)c1ccc(-c2nccnc2C(C)NC(=O)c2cc(Cl)cc(OC(F)(F)F)c2)nc1 (racemic) [Example I-36, (rac)-6-(3-{1-[3-Chloro-5-(trifluoromethoxy)benzamido]ethyl}pyrazin-2-yl)-N-ethyl-N-methylpyridine-3-carboxamide] | – | – | 100 | 100 | –
CC(NC(=O)c1cc(Cl)cc(S(=O)(=O)c2ccc(F)cc2)c1)c1nccnc1-n1cc(C#N)cn1 (racemic) [Example I-128, (rac)-3-Chloro-N-{1-[3-(4-cyano-1H-pyrazol-1-yl)pyrazin-2-yl]ethyl}-5-(4-fluorobenzene-1-sulfonyl)benzamide] | 90 | 80 | 100 | – | –
CCS(=O)(=O)c1cc(Cl)cc(C(=O)NC(C)c2nccnc2-n2cc(C#N)cn2)c1 (racemic) [Example I-122, (rac)-3-Chloro-N-{1-[3-(4-cyano-1-pyrazol-1-yl)pyrazin-2-yl]ethyl}-5-(ethanesulfonyl)benzamide] | 90 | – | 100 | – | –
CC(NC(=O)c1cc(Cl)cc(S(C)(=O)=O)c1)c1nccnc1-c1ncc(C(=O)N(C)CC#N)s1 (racemic) [Example I-77, (rac)-2-(3-{1-[3-Chloro-5-(methanesulfonyl)benzamido]ethyl}pyrazin-2-yl)-N-(cyanomethyl)-N-methyl-1,3-thiazole-5-carboxamide] | – | – | 100 | 100 | –
CCN(C)C(=O)c1cnc(-c2nc(C)cnc2C(C)NC(=O)c2cc(C(F)(F)F)cc(C(F)(F)F)c2)s1 (racemic) [Example I-152, (rac)-2-(3-{1-[3,5-Bis(trifluoromethyl)benzamido]ethyl}-6-methylpyrazin-2-yl)-N-ethyl-N-methyl-1,3-thiazole-5-carboxamide] | – | – | 100 | 100 | 100
CCN(C)C(=O)c1cnc(-c2ncc(C)nc2[C@H](C)NC(=O)c2cc(C(F)(F)F)nc(C(F)(F)F)c2)s1 [Example I-159, (+)-N-[(1S)-1-(3-(5-[ethyl(methyl)carbamoyl]-1,3-thiazol-2-yl)-6-methylpyrazin-2-yl)ethyl]-2,6-bis(trifluoromethyl)pyridine-4-carboxamide] | – | – | 100 | – | –
CC(NC(=O)c1cc(Br)cc(OC(F)(F)F)c1)c1nccnc1-c1ccc(Cl)cn1 (centres unmarked) [Example I-22] | – | – | 100 | 100 | 100
CCN(C)C(=O)c1cnc(-c2ncc(C)nc2C(C)NC(=O)c2cc(C(F)(F)F)cc(C(F)(F)F)c2)s1 (racemic) [Example I-148, (rac)-2-(3-{1-[3,5-Bis(trifluoromethyl)benzamido]ethyl}-5-methylpyrazin-2-yl)-N-ethyl-N-methyl-1,3-thiazole-5-carboxamide] | – | – | 100 | – | –
CC(NC(=O)c1cc(Cl)cc(S(=O)(=O)C2CC2)c1)c1nccnc1-n1cc(C#N)cn1 (racemic) [Example I-101, (rac)-3-Chloro-N-{1-[3-(4-cyano-1H-pyrazol-1-yl)pyrazin-2-yl]ethyl}-5-(cyclopropanesulfonyl)benzamide] | – | – | 100 | – | –
CC(NC(=O)c1cc(C(F)(F)F)cc(C(F)(F)F)c1)c1nccnc1-c1ncc(C(=O)N(C)CC#N)s1 (racemic) [Example I-67, (rac)-2-(3-{1-[3,5-Bis(trifluoromethyl)benzamido]ethyl}pyrazin-2-yl)-N-(cyanomethyl)-N-methyl-1,3-thiazole-5-carboxamide] | – | – | 100 | 100 | –
CC(NC(=O)c1cc(Cl)cc(OC(F)(F)F)c1)c1nccnc1-c1ncc(C(=O)N2CCOCC2)s1 (racemic) [Example I-60, (rac)-3-Chloro-N-[1-{3-[5-(morpholine-4-carbonyl)-1,3-thiazol-2-yl]pyrazin-2-yl}ethyl]-5-(trifluoromethoxy)benzamide] | – | – | 83 | – | –
CC(NC(=O)c1cc(Br)cc(Br)c1)c1nccnc1-n1cc(C#N)cn1 (racemic) [Example I-106, (rac)-3,5-Dibromo-N-{1-[3-(4-cyano-1H-pyrazol-1-yl)pyrazin-2-yl]ethyl}benzamide] | – | – | 100 | 100 | 100
CC(NC(=O)c1cc(C(F)(F)F)cc(C(F)(F)F)c1)c1nccnc1-c1ncc(C(=O)N2CCOCC2)s1 (racemic) [Example I-58, (rac)-N-[1-{3-[5-(Morpholine-4-carbonyl)-1,3-thiazol-2-yl]pyrazin-2-yl}ethyl]-3,5-bis(trifluoromethyl)benzamide] | 100 | 90 | 100 | – | –
CC(NC(=O)c1cc(C#N)cc(C(F)(F)F)c1)c1nccnc1-c1ccc(C(F)(F)F)cn1 (racemic) [Example I-41, (rac)-3-Cyano-5-(trifluoromethyl)-N-[1-{3-[5-(trifluoromethyl)pyridin-2-yl]pyrazin-2-yl}ethyl]benzamide] | – | – | 83 | – | 100
CC(NC(=O)c1cc(OC(F)F)cc(C2CC2)c1)c1nccnc1-c1ncc(C(=O)N(C)CC#N)s1 (racemic) [Example I-142, (rac)-N-(Cyanomethyl)-2-(3-{1-[3-cyclopropyl-5-(difluoromethoxy)benzamido]ethyl}pyrazin-2-yl)-N-methyl-1,3-thiazole-5-carboxamide] | – | – | 100 | 100 | –
CC(NC(=O)c1cc(Cl)cc(C(F)(F)F)c1)c1nccnc1-n1cc(C#N)cn1 (racemic) [Example I-105, (rac)-3-Chloro-N-{1-[3-(4-cyano-1H-pyrazol-1-yl)pyrazin-2-yl]ethyl}-5-(trifluoromethyl)benzamide] | – | – | 100 | 100 | –
CC(NC(=O)c1cc(Br)cc(C#N)c1)c1nccnc1-n1cc(Cl)cn1 (racemic) [Example I-98, (rac)-3-Bromo-N-{1-[3-(4-chloro-1H-pyrazol-1-yl)pyrazin-2-yl]ethyl}-5-cyanobenzamide] | – | – | 100 | 100 | 100
CC(NC(=O)c1cc(Br)cc(OC(F)(F)F)c1)c1nccnc1-n1cc(C(=O)N(C)C(C)C)cn1 (racemic) [Example I-137, (rac)-1-(3-{1-[3-Bromo-5-(trifluoromethoxy)benzamido]ethyl}pyrazin-2-yl)-N-methyl-N-(propan-2-yl)-1H-pyrazole-4-carboxamide] | 100 | 100 | 100 | – | –
